# Laboratory results taken from patent US20230414617A1, “PHARMACEUTICAL COMPOSITION COMPRISING ACID-BASE NEUTRALIZATION COMBINATION AND APPLICATION THEREOF” (CHENGDU KUACHANGAOPU MEDICAL TECHNOLOGY CO., LTD., priority 2020, published 2023).
# Columns and labels:
# [1] = pH of the study drug aqueous solution; assay type: physicochemical
# [2] = test system: liver tissue; test: Tissue necrosis study: necrotic zone of liver tissue after intrahepatic injection (Example 2); assay type: in vivo, New Zealand Large White rabbits
# Procedure: The rabbits were kept on conventional diet after drug administration, euthanized after 1 week, and the necrotic zone of the liver was determined after autopsy. The liver was incised along the center of the necrotic zone, and the extent of the necrotic zone was measured at the largest level, and the maximum and minimum diameters of the necrotic zone were measured respectively. The average diameter of the necrotic zone of liver tissue=(maximum diameter+minimum diameter)/2.
# [3] = test system: sarcoma S180 cell; test: Tumor inhibition effect in mice bearing sarcoma S180 cell (Example 2); assay type: in vivo; details: intratumoral injection; for Tumor weight (x ± s): 150 μl/mouse, once every 3 days x3, 5th day after end; for Tumor inhibition rate: vs negative control group 01
# Procedure: (§1) In the following examples of the present invention, the co-administration pharmaceutical efficacies of drug A and drug B combination administration was determined by ratio q of actual pharmaceutical efficacy/expected pharmaceutical efficacy according to Zhengjun JIN method, as follows.
# In the tumor inhibition effect study, successfully modeled experimental animals (mice bearing sarcoma S180 cell, with an average tumor volume of 314 mm^3) were randomly divided into 2 negative control groups (01, 02) and 9 drug study groups (1-9). […] The negative control and study drugs were administered by intraperitoneal injection (groups 02, 6 and 9) and intratumoral injection (other study groups), respectively. Each group was administered once every 3 days for a total of 3 times, with an injection volume of 150 μl/mouse. On the 5th day after the administration was ended, the animals were euthanized, and the tumor weight was measured after anatomy to the animals. The tumor inhibition rate was calculated from the negative control group of each drug administration mode.
# [4] = test system: tumor; test: Tumor inhibition rate, general statements (chemical ablation study; positive controls); assay type: in vivo
# [5] = test system: mouse liver cancer Hepa1-6 cells; test: Series B: tumor inhibition, Hepa1-6 transplantation tumor in 8-month-old mice (Example 10); assay type: in vivo; details: one intratumoral injection 100 μl/mouse; for r'3d, tumor inhibition rate (tumor volume): day 3; for r'14d, tumor inhibition rate (tumor volume): day 14
# Procedure: The animals in series B were modeled in 8-month-old mice as a middle-aged and elderly patient model, which was not consistent with the commonly used young patient model in terms of tumor formation, tumor histomorphology, and body immunocompetence. […] The model animals were randomly divided into 13 groups. Each group was administered once by intratumoral injection according to the drug grouping in Table 11 with an injection volume of 100 μl/mouse.
# The actual/expected ratio […] for short-term drug efficacy and the actual/expected ratio q14d for medium-term drug efficacy were calculated based on the drug efficacies (r′3d, […]) at different times (day 3, day 14), respectively.
# [6] = test system: outer lateral muscle of right leg; test: Series A: tissue destruction in normal muscle after intramuscular injection (Example 10); assay type: in vivo, nude mice; details: one intramuscular injection 100 μl/mouse, day 3
# Procedure: The test animals were divided into two series, A and B. The animals in series A were non-modeled nude mice, randomly divided into four groups, and were injected with the drugs according to groups 1-4 in Table 11 by intramuscular injection of outer lateral muscle of right leg. Each group was administered once, at an injection volume of 100 μl/mouse. On day 3 after the administration was ended, the animals were euthanized, and the specimens from outer lateral muscle mass of right leg of the nude mice were dissected and taken out, and gross pathological analysis was performed. The muscle sections were measured for distinguishing the area of tissue destruction region in the normal muscle (incomplete necrosis) (T3a) and the area of severe tissue destruction region therein (complete necrosis) […], and the results are shown in Table 11 below.
# [7] = test system: breast cancer 4T1 cells; test: Tumor inhibition, breast cancer 4T1 transplantation tumor (Example 3); assay type: in vivo, BALB/c mouse; details: intratumoral; for Tumor weight (x ± s): 150 μl/mouse, once every 3 days x3, 5th day after end; for Tumor inhibition rate: vs negative control
# Procedure: as §1
# In an experiment, the test animal was a BALB/c mouse, the modeling cells were breast cancer 4T1 cells, and the transplantation tumor was modeled at 1×10^6 cells/mouse under the skin of the animal's right axilla. […] Each group was administered by intratumoral injection once every 3 days for a total of 3 times, each time at an injection dose of 150 μl/mouse. On the 5th day after the administration was ended, the animals were euthanized, and the tumor weight was determined after anatomy to the animals. The tumor inhibition rate was calculated from the negative control group.
# [8] = test system: breast cancer 4T1 cells; test: Tumor inhibition, breast cancer 4T1 transplantation tumor (Example 7); assay type: in vivo, BALB/c mouse; details: intratumoral
# Procedure: as §1
# In an experiment, the test animal was a BALB/c mouse, the modeling cells were breast cancer 4T1 cells, and the transplantation tumor was modeled at 1×10^6 cells/mouse under the skin of the animal's right axilla. […] The negative controls and study drugs were administered intraperitoneally (groups 02, 11 and 15) and intratumorally (other study groups), respectively. All groups were dosed once every 3 days, for a total of 3 times, […], with an injection volume of 150 ul/mouse. On the 5th day after the administration was ended, the animals were euthanized, and the tumor weight was measured after anatomy to the animals. The tumor inhibition rate was calculated from the negative control group.
# [9] = test system: breast cancer 4T1 cells; test: Tumor inhibition, breast cancer 4T1 transplantation tumor (Example 4); assay type: in vivo, BALB/c mice; details: intratumoral
# Procedure: as §1
# In another experiment, the test animal was BALB/c mice, the modeling cells were breast cancer 4T1 cells, and the transplantation tumor was modeled at 1×10^6 cells/mouse under the skin of the animal's right axilla. Successfully modeled experimental animals (average tumor volume 307 mm^3) were randomly divided into 1 negative control group (group 0) and 13 drug study groups (groups 1-13). […] Each group was administered by intratumoral injection once every 3 days for a total of 3 times, each time at an injection dose of 150 μl/mouse. On the 5th day after the administration was ended, the animals were euthanized, and the tumor weight was measured after anatomy to the animals. The tumor inhibition rate was calculated from the negative control group.
# [10] = study drugs of Example 2 (Table 4), aqueous solution
# [11] = positive controls, under the conditions of the following examples
# [12] = study drugs of Example 3 (Table 5), aqueous solution
smiles,measurement,setting,value
"[Na+].[OH-] [0.3% NaOH, sodium hydroxide]",pH,[1]; [10],13.3
same,Diameter of necrotic zone of liver tissue (r ± s),"[2]; rabbit, in vivo",1.3 ± 0.3 cm
same,Tumor weight (x ± s),[3],1.52 ± 0.22 g
same,Tumor inhibition rate,[3],31%
"O=c1[nH]cc(F)c(=O)[nH]1 [0.5-1% 5-fluorouracil, 5-fluorouracil]",Tumor inhibition rate,[4]; [11],≥ 30%
"[Na+].[OH-] [3% NaOH, sodium hydroxide]",pH,[1]; [10],13.8
same,pH,"[1]; study drugs of Example 2 (Table 4), aqueous solution, listed as 3% sodium hydroxide",11.8
same,pH,[1]; [12],13.7
same,"r'3d, tumor inhibition rate (tumor volume)",[5],31.2%
same,"r'14d, tumor inhibition rate (tumor volume)",[5],2.8%
same,Diameter of necrotic zone of liver tissue (r ± s),"[2]; rabbit, in vivo",1.8 ± 0.5 cm
same,"S3d, area of severe tissue destruction region (complete necrosis)",[6],18.3 mm^2
same,"T3d, area of tissue destruction region in the normal muscle (incomplete necrosis)",[6],29.6 mm^2
same,Tumor weight (x ± s),[7],1.09 ± 0.25 g
same,Tumor inhibition rate,[7],55%
same,Tumor weight (x ± s),[3],1.04 ± 0.21 g
same,Tumor inhibition rate,[3],53%
"O=C([O-])O.[Na+] [7% sodium bicarbonate, sodium bicarbonate]",pH,[1]; [10],8.1
same,pH,[1]; [12],8.1
same,"r'3d, tumor inhibition rate (tumor volume)",[5],4.1%
same,"r'14d, tumor inhibition rate (tumor volume)",[5],3.9%
same,"S3d, area of severe tissue destruction region (complete necrosis)",[6],0 mm^2
same,"T3d, area of tissue destruction region in the normal muscle (incomplete necrosis)",[6],0 mm^2
same,Tumor weight (x ± s),[7],1.73 ± 0.27 g
same,Tumor inhibition rate,[7],29%
same,Tumor weight (x ± s),[3],1.59 ± 0.20 g
same,Tumor inhibition rate,[3],28%
"N=C(N)NCCC[C@H](N)C(=O)O [15% arginine, arginine]",pH,[1]; [10],10.9
same,pH,"[1]; study drugs of Example 4 (Table 6), aqueous solution",11.0
same,pH,"[1]; study drugs of Example 7 (Table 9), aqueous solution",10.9
same,Tumor weight (x ± s),"[8]; 150 ul/mouse, once every 3 days x3, 5th day after end",1.64 ± 0.28 g
same,Tumor inhibition rate,[8]; vs negative control,25%
same,Diameter of necrotic zone of liver tissue (r ± s),"[2]; one intrahepatic injection of 1.0 mL, after 1 week",0.2 ± 0.1 cm
same,Tumor weight (x ± s),[3],2.01 ± 0.24 g
same,Tumor inhibition rate,[3],23%
same,Tumor weight (x ± s),"[9]; 150 μl/mouse, once every 3 days x3, 5th day after end",1.74 ± 0.28 g
same,Tumor inhibition rate,[9]; vs negative control,23%
"CCO [75-99% ethanol, ethanol]",Tumor inhibition rate,[4]; [11],≥ 15%
[Na+].[OH-] [sodium hydroxide],pH,[1]; sodium hydroxide solution before and after neutralization with sodium bicarbonate (e.g.),12
same,Tumor inhibition rate,"[4]; chemical ablation study with basifying agents, model not stated",43%
